Measured values taken from publication PMC5532207, “Honokiol suppresses formyl peptide-induced human neutrophil activation by blocking formyl peptide receptor 1” (Scientific Reports, 2017).

Target: T1, Formyl peptide receptor 1 (FPR1) (Homo sapiens, UniProt P21462)
T1 construct: human neutrophils; also hFPR1 (NM_002029)-transfected HEK-293 and differentiated THP-1 cells
T1 sequence (P21462 1-350): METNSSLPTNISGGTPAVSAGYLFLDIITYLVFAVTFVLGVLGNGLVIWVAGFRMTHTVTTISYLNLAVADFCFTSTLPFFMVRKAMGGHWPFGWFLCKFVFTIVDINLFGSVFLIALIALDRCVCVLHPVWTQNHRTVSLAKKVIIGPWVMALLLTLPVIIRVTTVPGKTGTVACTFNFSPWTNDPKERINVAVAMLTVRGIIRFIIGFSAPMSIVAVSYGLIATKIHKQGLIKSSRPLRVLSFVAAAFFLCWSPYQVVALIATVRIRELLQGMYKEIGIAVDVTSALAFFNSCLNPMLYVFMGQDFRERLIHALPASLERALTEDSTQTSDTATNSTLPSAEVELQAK
Assay: displacement of fluorescent FPR1 ligand fNLFNYK on intact cells, flow cytometry
Type: cell-based

IC50: 7.44 ± 0.97 µM
SMILES: C=CCc1ccc(O)c(-c2ccc(O)c(CC=C)c2)c1 [H, Honokiol]
